In patent US12545659B2, “IRAK degraders and uses thereof” (Kymera Therapeutics, Inc., priority 2019, dated 2026):

Target: T1, IRAK4 (Homo sapiens, UniProt Q9NWZ3)
T1 construct: endogenous in cells; host or cells: OCI-LY10
T1 sequence (Q9NWZ3 1-460): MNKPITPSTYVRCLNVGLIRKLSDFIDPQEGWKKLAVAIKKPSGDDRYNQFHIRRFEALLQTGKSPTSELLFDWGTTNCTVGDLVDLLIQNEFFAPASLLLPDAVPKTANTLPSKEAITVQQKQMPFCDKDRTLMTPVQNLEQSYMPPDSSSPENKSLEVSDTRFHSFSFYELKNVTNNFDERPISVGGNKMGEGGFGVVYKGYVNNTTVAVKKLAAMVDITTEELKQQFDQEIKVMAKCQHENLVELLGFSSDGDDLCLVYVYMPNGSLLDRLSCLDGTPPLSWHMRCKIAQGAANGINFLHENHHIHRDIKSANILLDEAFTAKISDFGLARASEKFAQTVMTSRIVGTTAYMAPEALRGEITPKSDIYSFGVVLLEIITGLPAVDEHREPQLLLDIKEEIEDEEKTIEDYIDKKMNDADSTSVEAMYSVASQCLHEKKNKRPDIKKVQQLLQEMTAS
Test: IRAK4 MSD Degradation in OCI-LY10
Type: cell-based
Settings: OCI-LY10 cells, 4 hrs incubation, read-out: IRAK4 degradation in OCI-LY10 at 4 hrs: DC50
Description: Degradation of IRAK4 in OCI-LY10 was quantitatively measured using Meso Scale Discovery technology. […] Compounds were then added to the assay plates with a final top concentration of 1 to 10 μM in a 1:3 dilution series with total of 8 doses. The assay plates were then incubated for 4 to 24 hours at 37° C. under 5% C02. […] To prepare MSD assay plates (Meso Scale Discovery Catalog number L15XA-3), the plates were coated with […] capture antibody (mouse Anti-IRAK4 antibody [2H9], ab119942) in PBS, at 40 μL/well. […] Cell lysates were then added to MSD assay plates and the plates were incubated at room temperature for 1 hour. The plates were then washed 3 times with 150 μL/well TBST buffer and 25 μL/well primary detection antibody (rabbit Anti-IRAK4 antibody [Y279], from Abcam. Catalog number ab32511, 1 μg/mL). The assay plates were then incubated at room temperature for 1 hour, washed 3 times with 150 μL/well TBST buffer and 25 μL/well secondary detection antibody, SULFO-TAG anti-rabbit antibody were added (anti rabbit antibody from Meso Scale Discovery, Catalog number R32AB-1, 1 μg/mL). The assay plates were then incubated at room temperature for 1 hour, washed 3 times with 150 μL/well TBST buffer, and 150 μL/well MSD reading buffer (Meso Scale Discovery catalog number R92TC-2) was added. The plates were then analyzed by a MSD reader (Meso Scale Discovery, Model Quick Plex SQ 120). The data was then analyzed by software Prism 7.0 from GraphPad and the dose-depended IRAK4 degradation were fit using a three-parameter logistic equation to calculate DC50.
The letter codes for IRAK4 […] include: A (<0.05 μM); B (0.05-0.1 μM); C (0.1-0.5 μM); D (0.5-1.0 μM); and E (>1.0 μM).

Compound | DC50 [nM]
Cn1c(=O)n(C2CCC(=O)NC2=O)c2ccc(C3CN(C[C@H]4CC[C@H](n5cc6cc(NC(=O)c7cccc(C(C)(C)F)n7)c(C(F)F)cc6n5)CC4)C3)cc21 (stereo partly shown) [I-99] | 50 to 100
COc1cc2nn([C@H]3CC[C@H](CN(C)C4CCN(c5cccc6c5n(C)c(=O)n6C5CCC(=O)NC5=O)CC4)CC3)cc2cc1NC(=O)c1ccccn1 (stereo partly shown) [I-329] | < 50
CN(C[C@H]1CC[C@H](n2cc3cc(NC(=O)c4cccc(C(F)(F)F)n4)c(C(F)F)cc3n2)CC1)C1CCC2(CC1)CC(Cc1cccc3c1n(C)c(=O)n3C1CCC(=O)NC1=O)C2 (stereo partly shown) [I-278] | 50 to 100
Cn1c(=O)n(C2CCC(=O)NC2=O)c2cccc(CCN3C[C@H]4CC[C@@H](C3)N4CC[C@H]3CC[C@H](n4cc5cc(NC(=O)c6cccc(C(F)(F)F)n6)c(C(C)(C)O)cc5n4)CC3)c21 (stereo partly shown) [I-97] | < 50
Cn1c(=O)n(C2CCC(=O)NC2=O)c2cccc([C@H]3CC[C@@H](N(C)C[C@H]4CC[C@H](n5cc6cc(NC(=O)c7cccc(C(F)(F)F)n7)c(C(C)(C)O)cc6n5)CC4)CC3)c21 (single isomer, unassigned) [I-174, N-[2-[4-[[[4-[1-(2,6-dioxo-3-piperidyl)-3-methyl-2-oxo-benzimidazol-4-yl]cyclohexyl]-methyl-amino]methyl]cyclohexyl]-6-(1-hydroxy-1-methyl-ethyl)indazol-5-yl]-6-(trifluoromethyl)pyridine-2-carboxamide] | < 50

Second part, the compound after the results:

DC50 [nM] | Compound
500 to 1000 | Cn1c(=O)n(C2CCC(=O)NC2=O)c2cccc(NC[C@H]3CC[C@H](n4cc5cc(NC(=O)c6cccc(C(F)(F)F)n6)c(C(C)(C)O)cc5n4)CC3)c21 (stereo partly shown) [I-147, N-[2-[4-[[[1-(2,6-dioxo-3-piperidyl)-3-methyl-2-oxo-benzimidazol-4-yl]amino]methyl]cyclohexyl]-6-(1-hydroxy-1-methyl-ethyl)indazol-5-yl]-6-(trifluoromethyl)pyridine-2-carboxamide]
< 50 | CN(C[C@H]1CC[C@H](n2cc3cc(NC(=O)c4cccc(C(F)(F)F)n4)c(C(C)(C)O)cc3n2)CC1)C1CCN(c2cccc3c2n(C)c(=O)n3C2CCC(=O)NC2=O)CC1 (stereo partly shown) [I-80]
< 50 | CN(C[C@H]1CC[C@H](n2cc3cc(NC(=O)c4cccc(C(F)(F)F)n4)c(C(C)(C)O)cc3n2)CC1)C1CCN(c2ccc3c(c2)n(C)c(=O)n3C2CCC(=O)NC2=O)CC1 (stereo partly shown) [I-75]
< 50 | Cn1c(=O)n(C2CCC(=O)NC2=O)c2cccc(OCC3CCN(C[C@H]4CC[C@H](n5cc6cc(NC(=O)c7cccc(C(F)(F)F)n7)c(C(F)F)cc6n5)CC4)CC3)c21 (stereo partly shown) [I-115]
< 50 | COc1cc2nn([C@H]3CC[C@H](CN4CCC(c5ccc6c(c5)n(C)c(=O)n6C5CCC(=O)NC5=O)CC4)CC3)cc2cc1NC(=O)c1cccc(C(C)(C)F)n1 (stereo partly shown) [I-100]

Same assay, conditions: OCI-LY10 cells, 24 hrs incubation, read-out: IRAK4 degradation in OCI-LY10 at 24 hrs: DC50

Compound | DC50 [nM]
COc1cc2nc([C@H]3CC[C@H](CN4CC5(CC(CCNc6cccc7c6C(=O)N(C6CCC(=O)NC6=O)C7=O)C5)C4)CC3)oc2cc1NC(=O)c1cccc(C(C)(F)F)n1 (stereo partly shown) [I-198] | 50 to 100
COc1cc2nn([C@H]3CC[C@H](CN(C)C4CCC5(CC4)CC(Nc4cccc6c4C(=O)N(C4CCC(=O)NC4=O)C6=O)C5)CC3)cc2cc1NC(=O)c1cccc(C(F)(F)F)n1 (stereo partly shown) [I-223] | 50 to 100
CC(C)(O)c1cc2nn([C@H]3CC[C@H](CN4CCC5(CC4)CC(CNc4cccc6c4C(=O)N(C4CCC(=O)NC4=O)C6=O)C5)CC3)cc2cc1NC(=O)c1cccc(S(F)(F)(F)(F)F)n1 (stereo partly shown) [I-187] | 50 to 100
CN(CCCO[C@H]1C[C@H](Nc2cccc3c2C(=O)N(C2CCC(=O)NC2=O)C3=O)C1)C[C@H]1CC[C@H](n2cc3cc(NC(=O)c4cccc(C(F)(F)F)n4)c(C(C)(C)O)cc3n2)CC1 (stereo partly shown) [I-41] | < 50

Continued, values first:

DC50 [nM] | Compound
< 50 | COc1cc2nn([C@H]3CC[C@H](CN4CC5(CC([C@H](C)CNc6cccc7c6C(=O)N(C6CCC(=O)NC6=O)C7=O)C5)C4)CC3)cc2cc1NC(=O)c1cccc(C(F)(F)F)n1 (stereo partly shown) [I-332]
100 to 500 | COc1cc2nc([C@H]3CC[C@H](CN4CCC5(CC4)CC(CCNc4cccc6c4C(=O)N(C4CCC(=O)NC4=O)C6=O)C5)CC3)oc2cc1NC(=O)c1cccc(C(F)(F)F)n1 (stereo partly shown) [I-137]
